Test results: patent publication US20110183911A1, “METHOD FOR IMPROVING NEUROTRANSMISSION FAILURE USING A NOVEL AGENT” (JURIDICAL FOUNDATION THE CHEMO-SERO-THERAPEUTIC RESEARCH …, priority 2002, published 2011)
Like-named read-outs stand apart in the source and are kept apart here.

Columns and labels:
[1] = tested on: NG108-15 cells; assay: Activity to accelerate synaptic formation: differentiation of NG108-15 cells, anti-Rab3a immunostaining; format: cell-based, rat; settings: Selenoprotein P 4.36 μg/mL
Experimental: In order to study the effect of Selenoprotein P on synaptic formation, differentiation to neurons was examined using NG108-15 cells (hybridoma of rat neuroblastoma and rat glioma: ATCC NO. HB-12317) which has widely been used for study of synaptic formation and a receptor. NK108-15 cells were seeded to DME supplemented with 10% fetal calf serum and HAT (hypoxanthine, aminopterin and thymidine) in 35 mm polyornithine-coated dish and incubated at 37° C., 10% CO2. After 1 to 2 days, the culture medium was replaced with DMEM (serum free medium) supplemented with 1% fetal calf serum and HT (hypoxanthine and thymidine) and 0.1 mM dibutyl cyclic AMP (abcAMP) was added to induce differentiation while Selenoprotein P at 4.36 μg/mL was added to the medium followed by culture for 3 days. After culture, the dish attached with a sheet of cells was rinsed twice with phosphate buffered saline (hereinafter referred to as PBS) to wash the culture. Cellular proteins were then fixed with paraformaldehyde adjusted to 4% with PBS. After fixation at room temperature for 30 minutes, the dish was rinsed twice with PBS to remove a fixing solution. […]
The nerve cell bodies had also a number of short neurites. […] A proportion of synapses specifically dyed with the anti-Rab3a antibody was then calculated with Mac SCOPE (manufactured by Mitani Corporation), a software for image analysis for Mackintosh, to measure immunopositive spots. […] Therefore, those spots with R value alone could be extracted with the analysis software and measured. In addition, the number of varicosity with no immunological reaction was measured manually and then a proportion (%) of the number of immunopositive varicosity among a total number of varicosity in the photographed picture was calculated.

[2] = Cell death-inhibitory activity of purified fractions; format: cell-based; settings: fractions purified from plasma (Preparation 1)
[3] = tested on: cultured primary neurons; assay: Activation of primary neurons by NO (SNAP): mitochondrial dehydrogenase activity, Cell Counting kit-8; format: cell-based; settings: mouse primary neurons, 15 hours, fragment 0.26 μM as selenium (FIG. 3)
Excerpt: In order to study the effect of Selenoprotein P on the neurotic activity of NO as synaptic neurotransmitter, cultured primary neurons were subject to the action of an NO generator, S-nitroso-N-acetyl-DL-penicillamine (SNAP, manufactured by DOJINDO LABORATORIES), in the presence of Selenoprotein P to determine as to whether a respiratory capacity of neuronal mitochondria is altered in the presence of Selenoprotein P. For determination of a respiratory capacity of mitochondria, a kit was used that readily measured the dehydrogenase activity in the mitochondrial inner membrane (Cell Counting kit-8, manufactured by DOJINDO LABORATORIES).
Fetus was removed from C57BL/6 mouse of 14-day pregnancy (purchased from Charles River Japan, Inc.). The cerebral cortex from the fetus was treated and dispersed with 0.25% trypsinized EDAT and then cultured in Neurobasal Medium (Gibco BRL.) supplemented with B27 supplement (Gibco ERL.) in 5% CO2 incubator at 37° C. for culture of primary neurons. […] After developing reaction, each 100 μL of the culture supernatant was transferred to a 96-well microtiter plate and then absorption was measured at a wave-length of 450 nm with a microtiter plate reader with a reference wave-length of 650 nm.

[4] = tested on: cell culture
[5] = tested on: acetylcholine receptors; assay: Pilocarpine-induced convulsion in mice (function of acetylcholine receptor); format: in vivo; settings: ICR male mice
Experimental: In order to study the effect of Selenoprotein P on cholinergic neurons, to mice was administered pilocarpine that agonistically acted on acetylcholine receptors present on junctions (synaptic terminal) between neurons and between neurons and muscle to thereby induce convulsion. Pilocarpine, having a parasympathetic nerve-stimulating activity, will induce clonic convulsion in the limbs leading to systemic convulsion when administered to mice.
Twelve ICR male mice (weighing 30 to 43 g; purchased from CLEA Japan, Inc.) of nine weeks old were divided into two groups (6 animals/group) and tested. One hour before administration of pilocarpine, Selenoprotein P prepared at a concentration of 2.5 mg/mL with saline was administered to mice at 0.5 mg of Selenoprotein P per animal (200 μL) as a test group. For a control group, an equivalent amount of saline was administered intraperitoneally. Pilocarpine (pilocarpine hydrochloride, Wako Pure Chemical Industries, Ltd.) was prepared at 100 mg/mL with saline and administered to mice intraperitoneally at 270 to 320 mg/kg. Immediately after administration, mice were photographed with a digital video for record of experiment. Observation was made for 60 minutes after administration of pilocarpine. Time required for developing systemic convulsion and survival of the animals were taken for criteria of assessment. […]

[6] = tested on: cell culture; assay: Toxicity when added to cell culture

| Compound | Morphology of differentiated cells (neurites, varicosity) ([1]; 3 days) | Rab3a-dyed particles on neurites (FIG. 1) ([1]; 3 days, anti-Rab3a monoclonal antibody) | Proportion of Rab3a-immunopositive cells ± SD ([1]; differentiation with dibutyl cyclic AMP, culture for 3 days, immunopositive varicosity among total varicosity) | Cell death-inhibitory activity per proteins [2] | Mitochondrial respiratory capacity of the neurons in the presence of NO generator SNAP ([3]; SNAP 50 μM, Selenoprotein P or sodium selenite 1 μM) | Activity of dehydrogenase of the mitochondrial inner membrane (mitochondrial respiratory capacity), without SNAP ([3]; no SNAP, Selenoprotein P 1 μM) | Toxicity [4] | Time for developing systemic convulsion compared to control group ([5]; 0.5 mg Selenoprotein P per animal 1 hour before pilocarpine) | Mortality after challenge with pilocarpine compared to control group (FIG. 2) ([5]; 0.5 mg Selenoprotein P per animal, observation 60 minutes) | Toxicity [6] |
| --- | --- | --- | --- | --- | --- | --- | --- | --- | --- | --- |
| Selenoprotein P: selenocysteine-containing plasma protein (SEQ ID NO: 1), full-length 64 kDa, purified from human plasma (Preparation 2) | complexity in development of neurites as well as much particulate varicosity | a large number of Rab3a-dyed knotty particles on neurites | 66.0 ± 2.75% | much lower than that of the fragment thereof | significantly increased | tended to show an increased activity | no such a high toxicity could be observed | significantly shortened | apparently decreased mortality | – |
| N[C@@H](C[Se][Se]C[C@H](N)C(=O)O)C(=O)O [selenocystine] | – | – | – | – | – | – | – | – | – | considerably high toxicity |
